Results published in patent publication EP0199888B1, “Control of heme and iron concentrations in body tissues” (THE ROCKEFELLER UNIVERSITY, priority 1985, dated 1986).

Assays:
[1] = system: bile duct cannulated rats; test: Excretion of heme and bilirubin in bile after infusion of exogenous heme
[2] = system: bile duct cannulated rats; test: Output of biliary iron by graphite furnace atomic absorption analysis; format: in vivo; settings: after administration of Sn-PP; representative study, typical of all animals studied
[3] = system: bile duct cannulated rats; test: Excretion of heme and bilirubin in bile after infusion of heat-damaged erythrocytes; format: in vivo

How did the biliary heme excretion ([1]; 5 rats, heme 6.1 µmol/kg b.w. i.v. bolus plus Sn-PP 10 µmol/kg b.w. i.v. at the same time) turn out when `C=Cc1c2[n-]c(c1C)/C=c1\[n-]/c(c(C)c1C=C)=C\c1[n-]c(c(CCC(=O)O)c1C)C=c1[n-]/c(c(C)c1CCC(=O)O)=C\2.[Sn+4]` [Sn-PP, tin protoporphyrin-IX] was run?
Its biliary heme excretion is “prompt and marked increase”.

What about the “amounts of heme excreted in bile relative to control animals treated with heme alone” value ([1]; heme 6.1 µmol/kg b.w. plus Sn-PP 10 µmol/kg b.w. i.v.) of the same molecule?
Its value is 3-4 fold.

And the “increase in biliary bilirubin resulting from the infusion of heme” value ([1]; heme 6.1 µmol/kg b.w. plus Sn-PP 10 µmol/kg b.w. i.v., all animals)?
Its value is “diminished”.

And the “amounts of heme excreted in bile” value ([1]; heme 6.1 µmol/kg b.w. plus Sn-PP 10 µmol/kg b.w. i.v., mean)?
The value was 51 % of the dose of heme injected.

And the “output of biliary iron” value [2]?
The value was “incresed markedly”.

What about the biliary heme excretion ([3]; 8 rats, heat-damaged erythrocytes i.v. bolus (equivalent to 8.5 umol heme/kg b.w.) plus Sn-PP 10 umol/kg b.w. i.v., pyridine hemochromogen method) of the same molecule?
The biliary heme excretion was “prompt and marked increase”.

What about the “combined amounts of heme plus bilirubin in bile” value ([3]; heat-damaged erythrocytes plus Sn-PP 10 umol/kg b.w. i.v., average, similar in the control group) of the same molecule?
The value was “about 50 % of the dose of heme administered”.

What about the “increase in biliary bilirubin output” value ([3]; heat-damaged erythrocytes plus Sn-PP 10 umol/kg b.w. i.v., in all but one Sn-PP treated animal) of the same molecule?
The value was “greatly diminished”.

Which results are given for `C=CC1=C(C)c2cc3[n-]c(cc4[n-]c(cc5nc(cc1n2)C(C)=C5C=C)c(C)c4CCC(=O)O)c(CCC(=O)O)c3C.[Fe+2]` [heme, ferroprotoporphyrin IX]?
total amount of exogenous heme recovered in the bile as both heme and bilirubin ([1]; heme alone, 6.1 µmol/kg b.w. i.v. bolus, average): 32 % of the dose administered; total amount of heme excreted in the bile ([1]; heme alone, 6.1 µmol/kg b.w. i.v. bolus, average of 5 rats): 14 % of the dose injected
